These results are taken from the METLIN SMRT retention time set (Domingo-Almenara et al. 2019).

The data set in a line: gradient 5% acetonitrile 3 min, to 50% in 2 min, to 85% in 15 min, held 3 min, 100 µL/min. The conditions noted are these: column: Zorbax Extend-C18 2.1 x 50 mm; eluents: water / acetonitrile, 0.1% formic acid. In outline: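 Retention times of pure standards were taken from adduct peaks that were selected by computer and manually inspected. Over 3 months, mixtures of ~100 molecules were run by HPLC–quadrupole time-of-flight mass spectrometry in positive and negative ionization mode. The Zorbax Extend-C18 column (2.1 × 50 mm, 1.8 μm) ran at 100 μL/min in water and acetonitrile, each containing 0.1% formic acid, with 40 μL dead volume and 900 μL dwell volume.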
For the molecule `CCN1CCN(c2cc(C)c3cc(NC(=O)/C=C/c4ccc(OC(C)C)cc4)ccc3n2)CC1`, the RP-LC retention time is 646 s.
As for `COc1ccc(CC2c3cc(OC)c(OC)cc3CC[N+]2(C)C)cc1OC` (stereo not drawn), the figure is 693 s; as for `O=C1NC2(CCN(C(=O)Nc3ccc4c(c3)OCO4)CC2)Nc2c(Cl)cccc21`, 682 s.
`O=C1CCC2(O)[C@@H]3Cc4ccc(O)c5c4[C@]2(CCN3Cc2ccoc2)C1O5` (stereo partly drawn) had an RP-LC retention time of 609 s.
Turning to `O=C(NCc1cccs1)C1CC(=O)N(c2ccc3c(c2)CCN3C(=O)C2CC2)C1` (stereo not drawn), the RP-LC retention time came to 710 s.
As to `CCOc1ccc(-c2ccc(=O)n(CCCC(=O)Nc3ccccc3SC)n2)cc1`, the RP-LC retention time is 853 s.
In turn, `Cc1ccc(CNC(=O)C2(C)Cn3nc(C(=O)NCCN(C)C)cc3C(=O)N2C)cc1` (stereo not drawn) showed an RP-LC retention time of 639 s.
`CN(C)c1cccc(C(=O)Nc2cc(-c3cccs3)no2)c1` registered an RP-LC retention time of 970 s.
As for `Cc1ccc(NC(=O)C2CCCN2S(=O)(=O)c2cc3c(cc2C)NC(=O)C(C)O3)cc1C` (stereo not drawn), the figure is 842 s.
`CCc1nc(-c2cc(S(=O)(=O)NCC(=O)NC3CCCc4ccccc43)c(C)s2)no1` (stereo not drawn) returned an RP-LC retention time of 998 s.
`O=C(NCc1ccco1)C1CCN(Cc2cc3ccccc3n2Cc2cccc(Cl)c2)CC1` returned an RP-LC retention time of 853 s.
Turning to `CC(C)CC(=O)NCCC1CCN(C(=O)Nc2cc(F)ccc2F)CC1`, the RP-LC retention time amounted to 1190 s.
In the case of `COc1ccc2[nH]cc(CCNC(=O)CN3C(=O)c4cccnc4Sc4ccccc43)c2c1`, the RP-LC retention time was found to be 734 s.
The molecule `CO[C@H]1C(=O)N(C(C)C)[C@H]1C1CCN(C(=O)C(C)C)CC1` came in with an RP-LC retention time of 682 s.
As for `CCCN1C(=O)c2cc(S(=O)(=O)Nc3ccccc3OC)ccc2Oc2cccnc21`, the RP-LC retention time came to 1080 s.
As for `CCC(=O)Nc1c(C)noc1/C=C\c1ccc(S(=O)(=O)N2CCCCC2C)cc1` (stereo not drawn), the figure is 915 s.
Consider `CC(NC(=O)CN1CN(c2ccccc2)C2(CCN(C(=O)CC(C)(C)C)CC2)C1=O)c1ccccc1` (stereo not drawn), for which the RP-LC retention time is 931 s.
`Cc1ccc(Cn2c(CN3CCC(C(=O)NC(C)C)CC3)cc3ccccc32)cc1`: the RP-LC retention time was found to be 747 s.
`COc1ccc(OCC(=O)N2CCCCC2CCN2CCOCC2)cc1` (stereo not drawn) came in with an RP-LC retention time of 601 s.
As for `Cc1cc2c(cc1S(=O)(=O)N1CCCC1C(=O)Nc1cccc(Cl)c1C)OC(C)C(=O)N2` (stereo not drawn), the RP-LC retention time was 891 s.
`Cc1nc(-c2cn(C(C)C)c3ncccc23)sc1C(=O)NCc1ccco1` yielded an RP-LC retention time of 912 s.
As to `CCC(=O)Nc1cnc2c(c1)CCC2`, the RP-LC retention time came out at 491 s.
For the molecule `COc1ccc(NC(=O)N2CCC(n3cnc4cccnc43)CC2)cc1`, the RP-LC retention time was determined as 617 s.
Take `COc1ccccc1-c1nc(Cn2nnc(-c3nc(-c4ccc(Cl)cc4)no3)c2C)c(C)o1`: the RP-LC retention time was found to be 1220 s.
As to `O=C(NCc1cccs1)C1CCN(c2nnc3ccccn23)CC1`, the RP-LC retention time was 528 s.
In the case of `Cc1cccc(N2CCN(c3ccc4cc(S(=O)(=O)N5CCCCC5C)ccc4n3)CC2)c1C` (stereo not drawn), the RP-LC retention time amounted to 1330 s.
`CCC(C)NC(=O)c1nn(-c2ccc(OC)cc2)c(OC)cc1=O` (stereo not drawn): the RP-LC retention time was determined as 692 s.
`COc1ccccc1CNS(=O)(=O)c1ccc(F)c(C(=O)Nc2cc(C)ccc2C)c1` gave an RP-LC retention time of 967 s.
As for `O=C(Cc1c(F)cccc1Cl)Nc1nc(-c2ccccc2)cs1`, the figure is 1040 s.
As to `Cc1cccc(-c2noc(C3CCCN3C(=O)NCCc3ccccc3)n2)c1` (stereo not drawn), the RP-LC retention time stood at 593 s.
`O=C(Cc1cccs1)N1CCC[C@H]1c1nc(-c2ccccc2)n[nH]1` showed an RP-LC retention time of 711 s.
For `O=C(c1c[nH]c2ccccc12)N1CCCC1c1nc(-c2ccccc2)n[nH]1` (stereo not drawn), the RP-LC retention time is 649 s.
The molecule `COc1cc(OC)cc(-c2nc(-c3cn(-c4ccc(F)cc4)nn3)no2)c1` returned an RP-LC retention time of 809 s.
The molecule `Cc1cccc(S(=O)(=O)NC2CCN(c3ccc(F)cc3)C2=O)c1` (stereo not drawn) had an RP-LC retention time of 928 s.
Take `COc1ccc(C(=O)N2CCCC2c2nc(-c3ccccc3)n[nH]2)cc1` (stereo not drawn): the RP-LC retention time was 707 s.
`COc1ccc(-c2csc(NC(=O)CCn3c(=O)sc4ccccc43)n2)cc1`: the RP-LC retention time is 982 s.
Consider `C=C(C)Cn1c(CNC(=O)c2ccccc2)nc2ccccc21`, for which the RP-LC retention time stood at 600 s.
`O=C(CCn1nnc2cc(-c3noc(COc4ccccc4)n3)ccc21)N1CCCC1`: the RP-LC retention time amounted to 862 s.
As for `Cc1ccc(NC(=O)N2C[C@@H](F)C[C@H]2C(=O)N2CCc3ccccc3C2)c(C)c1`, the figure is 817 s.
In turn, `CCCCCn1c(SCC(=O)OCC)nc2cc(C(=O)N3CCC(C(N)=O)CC3)ccc2c1=O` gave an RP-LC retention time of 783 s.
`COC(=O)c1c(C)[nH]c(C(=O)N2CCCC(C(=O)NC3CC3)C2)c1C` (stereo not drawn) registered an RP-LC retention time of 627 s.
As for `Cc1c(-c2noc(C(=O)NCCCN3CCCCCC3)n2)oc2ccccc12`, the figure is 692 s; as for `C=CCNC(=O)[C@@H]1[C@H](c2cc(OC)c(OC)c(OC)c2)c2cc3c(cc2[C@H](O)[C@H]1CO)OCO3`, 649 s; as for `Cc1ccc(CNC(=O)C2=C3CCCN3c3ccc(F)cc3S2(=O)=O)cc1`, 909 s.
`CCOc1ccc(NC(=O)c2oc3cc(C)ccc3c2C)c2cccnc12` yielded an RP-LC retention time of 753 s.
Molecule `Cc1nn(-c2ccccc2)c2c1C(c1ccc([N+](=O)[O-])cc1)C(C#N)=C(N)O2` (stereo not drawn) yielded an RP-LC retention time of 760 s.
`Cc1cccc(CN2CC(N(C3CCOCC3)S(C)(=O)=O)C2)c1` had an RP-LC retention time of 621 s.
In turn, `Cc1ccc(-c2nc3ccccn3c2Nc2ccc3c(c2)OCO3)cc1` registered an RP-LC retention time of 694 s.
`Cc1cc(C)c2c(N3CCCCC3)nc(C(=O)N3CCOCC3)nc2n1` came in with an RP-LC retention time of 608 s.
Take `CC1CCCN(CC2CCN(S(=O)(=O)c3ccc4c(c3)CCC4)CC2)C1` (stereo not drawn): the RP-LC retention time was 719 s.
As for `O=C(Nc1cccc(Br)c1)C1CCCN(c2ncc(-c3ccccc3)cn2)C1` (stereo not drawn), the figure is 1250 s; as for `Cn1cc(-c2cc3n(n2)CCCN3C(=O)CCC(=O)NCCCN2CCCC2)c2ccccc21`, 620 s.
The molecule `COc1ccc(F)cc1S(=O)(=O)N1CCc2nn(C)c(=O)n2CC1` registered an RP-LC retention time of 673 s.
As for `COc1ccc2c(c1)OC1(C)CC2C(S(=O)(=O)c2ccc(C)c(C)c2)C(=O)N1` (stereo not drawn), the figure is 934 s; as for `Cc1cc(N2CCC(NC(=O)Nc3cccc(F)c3)C2=O)ccc1F` (stereo not drawn), 882 s.
In the case of `Cc1nc(-c2csc(S(=O)(=O)N3CCC(C(=O)NCC4CCCO4)CC3)c2)no1` (stereo not drawn), the RP-LC retention time was determined as 725 s.
On to `CCCC(=O)Nc1ccc2c(c1)CN(C(=O)c1cc(F)ccc1Cl)C(C(=O)N(C)C)C2` (stereo not drawn), for which the RP-LC retention time came to 726 s.
In turn, `O=C(c1ccccc1Cl)N1CCC(COCc2ccccc2)CC1` had an RP-LC retention time of 979 s.
As for `COc1cc(/C=C2\CCOC2=O)cc(OC)c1OC`, the figure is 802 s.
Consider `O=C(Nc1ccc(F)cc1)c1c(O)c2cccnc2n(-c2cccc(F)c2)c1=O`, for which the RP-LC retention time was 1220 s.
In the case of `Cc1ccc(-c2nc(-c3ccc4nnn(C)c4c3)no2)cc1C`, the RP-LC retention time was 1170 s.
As for `Cc1cccc2c(C(N)=O)cc(-c3ccccc3)nc12`, the figure is 904 s; as for `O=C(NCC1CCCO1)N1CCN(c2nc3ccccc3n(Cc3ccccc3)c2=O)CC1` (stereo not drawn), 850 s; as for `COc1ccccc1N1CCN(C(=O)C2CCN(c3nnc(-c4ccccc4)o3)CC2)CC1`, 807 s.
As for `CCCNC(=O)c1n[nH]c2c1CC(C)CC2` (stereo not drawn), the figure is 740 s; as for `COc1ccc(-c2nnc(-c3cccnc3NCc3cccc(OC)c3OC)o2)cc1`, 1060 s.
In turn, `Cc1ccc(OCC(O)CN2CCN(c3ccccc3)CC2)cc1C` (stereo not drawn) registered an RP-LC retention time of 726 s.
In turn, `O=C(O)c1ccc2c(c1)n(Cc1ccc(F)cc1)c(=O)c1ccnn12` gave an RP-LC retention time of 793 s.
On to `O=C([C@@H]1C[C@H](F)CN1S(=O)(=O)c1cccc(F)c1)N1CCc2ccccc2C1`, for which the RP-LC retention time was determined as 920 s.
As for `Cc1ccc(C)c(NC(=O)c2cn(-c3ncccc3-c3nc(C4CC4)no3)cn2)c1`, the figure is 973 s.
As for `CCn1c(SCC(=O)Nc2nc(-c3ccccc3)cs2)nnc1-c1cc2ccccc2o1`, the RP-LC retention time is 1070 s.
In turn, `COc1cccc(-n2c(=O)c(C(=O)Nc3ccc(Cl)cc3)c(O)c3cccnc32)c1` showed an RP-LC retention time of 1340 s.
`COc1ccc(C)cc1NC(=O)Cn1nc2cc(C)nc(Nc3ccc(F)cc3)n2c1=O` yielded an RP-LC retention time of 1100 s.
As for `Cc1cc(F)ccc1NC(=O)c1n[nH]nc1Nc1ccc(F)cc1`, the figure is 923 s; as for `O=C(Nc1ccccc1F)N1CCCC1c1nc(-c2ccccc2)no1` (stereo not drawn), 940 s; as for `CCn1ccc2sc(C)c(C(=O)NCc3cc(OC)ccc3OC)c2c1=O`, 716 s.
The molecule `CC(C)(C)CC(=O)N1C[C@H]2C[C@H](C1)[C@H]1CCCC(=O)N1C2` yielded an RP-LC retention time of 654 s.
As to `CCc1nnc2ccc(-c3noc(Cc4ccc(C)cc4)n3)cn12`, the RP-LC retention time worked out at 918 s.
